These results are taken from patent US12138329B2, “Gel cleansing agent” (SHISEIDO HONEYCAKE INDUSTRIES CO., LTD., priority 2019, dated 2024).

The data set is described as follows: pH of 1% aqueous solution. Format: physicochemical. The conditions noted are these: polyoxyethylene alkyl ether carboxylate.

For NaOH, the “pH of 1% aqueous solution, 60% neutralization” value (60% neutralization) is “about 5.7”. The “pH of 1% aqueous solution, 90% neutralization” value (90% neutralization) was “about 6.5”. Besides, under “100% neutralization”, the “pH of 1% aqueous solution, 100% neutralization” value is “about 7.8”.
